Reference: patent US20250154169A1, “COMPOUNDS AND METHODS FOR MODULATING SPLICING” (REMIX THERAPEUTICS INC., priority 2021, published 2025)
Like-named read-outs stand apart in the source and are kept apart here.

Tests used:
[1] = system: HTT mRNA; test: Splicing RT-qPCR assay, HTT canonical (CJ) and alternative (AJ) junction mRNA; assay type: cell-based, human; details: Homo sapiens, A673 or K562 cells, 24 hours compound treatment; for IC50: read-out: HTT CJ (IC50, decrease in canonical junction mRNA); for AC50: read-out: HTT AJ (AC50, increase in alternative junction mRNA)
In short: (§1)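 Canonical (CJ) and alternative-exon (AJ) junction mRNAs quantified by one-step RT-qPCR in cell lysates, normalized to housekeeping PPIA for A673 and GAPDH or GUSB for K562. Cells were exposed 24 h at 37 °C to 11-point 3-fold compound series from 10 uM final, with DMSO at or below 0.25%.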

[2] = system: MYB mRNA; test: Splicing RT-qPCR assay, MYB canonical (CJ) and alternative (AJ) junction mRNA; assay type: cell-based, human; details: Homo sapiens, A673 or K562 cells, 24 hours compound treatment, RT-qPCR; for AC50: read-out: MYB AJ (AC50, increase in alternative junction mRNA); for IC50: read-out: MYB CJ (IC50, decrease in canonical junction mRNA)
In short: as §1

Row | IC50 ([1]; 24 h) [nM] | IC50 ([2]; 24 h) [nM] | Compound | AC50 [1] [nM] | AC50 ([2]; 24 h) [nM] | IC50 [1] [nM] | AC50 [2] [nM] | IC50 [2] [nM]
1 | 1000 to 10000 | 100 to 1000 | CCn1cc2c(N3C[C@@H](C4CC4)N[C@@H](C)C3)ccc(C(=O)Nc3cc(F)c4nc(C)cn4c3)c2n1 [Compound 617, 4-((3R,5S)-3-cyclopropyl-5-methylpiperazin-1-yl)-2-ethyl-N-(8-fluoro-2-methylimidazo[1,2-a]pyridin-6-yl)-2H-indazole-7-carboxamide] | > 10000 | 1000 to 10000 |  |  | 
2 | 1000 to 10000 | 100 to 1000 | CCN(CC)C1(C)CCN(c2ccc(C(=O)Nc3cc(F)c4nc(C)cn4c3)c3nn(CC)cc23)CC1 [Compound 517, 4-[4-(diethylamino)-4-methylpiperidin-1-yl]-2-ethyl-N-{8-fluoro-2-methylimidazo[1,2-a]pyridin-6-yl}indazole-7-carboxamide trifluoroacetic acid] | > 10000 | 100 to 1000 |  |  | 
3 |  |  | Cc1cn2cc(NC(=O)c3ccc(N4CCC(N5C6COCC65)C4)c4cn(C)nc34)cc(F)c2n1 (stereo not shown) [Compound 629] | 1000 to 10000 |  | 1000 to 10000 | 1000 to 10000 | 1000 to 10000
4 | 1000 to 10000 | 100 to 1000 | COCCn1cc2c(N3CCNCC3)ccc(C(=O)Nc3cn4cc(C)nc4c(OC)n3)c2n1 [Compound 510, N-{8-methoxy-2-methylimidazo[1,2-a]pyrazin-6-yl}-2-(2-methoxyethyl)-4-(piperazin-1-yl) indazole-7-carboxamide] | 1000 to 10000 | 100 to 1000 |  |  | 
5 | 100 to 1000 | 100 to 1000 | CCn1cc2c(N3C[C@@H](C)N[C@@H](C4CC4)C3)ccc(C(=O)Nc3cc(F)c4nc(C)cn4c3)c2n1 [Compound 616, 4-((3S,5R)-3-cyclopropyl-5-methylpiperazin-1-yl)-2-ethyl-N-(8-fluoro-2-methylimidazo[1,2-a]pyridin-6-yl)-2H-indazole-7-carboxamide] | 1000 to 10000 | 100 to 1000 |  |  | 
6 | 1000 to 10000 | 100 to 1000 | CCn1cc2c(N3C[C@H](C)N[C@@H](C)C3)ccc(C(=O)Nc3cc(F)c4nc(C)cn4c3)c2n1 [Compound 592] | > 10000 | 100 to 1000 |  |  | 
7 | 1000 to 10000 | < 100 | Cc1cn2cc(NC(=O)c3ccc(N4CC[C@@H](NCC5CC5)C4)c4cn(C)nc34)cc(F)c2n1 [Compound 522, 4-[(3R)-3-[(cyclopropylmethyl)amino]pyrrolidin-1-yl]-N-{8-fluoro-2-methylimidazo[1,2-a]pyridin-6-yl}-2-methylindazole-7-carboxamide] | 1000 to 10000 | 100 to 1000 |  |  | 
8 | 1000 to 10000 | 1000 to 10000 | COCc1nc2c(F)cc(NC(=O)c3ccc(N4CCNCC4)c4cn(C)nc34)cc2o1 [Compound 504, N-[4-fluoro-2-(methoxymethyl)-1,3-benzoxazol-6-yl]-2-methyl-4-(piperazin-1-yl) indazole-7-carboxamide] | 1000 to 10000 | 1000 to 10000 |  |  | 
9 | > 10000 | 100 to 1000 | Cc1cn2cc(NC(=O)c3ccc(N4CC[C@@H](NC5CC56CCOCC6)C4)c4cn(C)nc34)cc(F)c2n1 (stereo partly shown) [Compound 649] | > 10000 | 100 to 1000 |  |  | 
10 | > 10000 | 1000 to 10000 | CCn1cc2c(N3CCC(C)(NC)C3)ccc(C(=O)Nc3cc(F)c4nc(C)cn4c3)c2n1 (stereo not shown) [Compound 544, 2-ethyl-N-{8-fluoro-2-methylimidazo[1,2-a]pyridin-6-yl}-4-[3-methyl-3-(methylamino)pyrrolidin-1-yl]indazole-7-carboxamide] | > 10000 | 1000 to 10000 |  |  | 
11 | > 10000 | > 10000 | Cc1cn2cc(NC(=O)c3ccc(N4CC[C@@H](Nc5ccccc5)C4)c4cn(C)nc34)cc(F)c2n1 [Compound 579, N-{8-fluoro-2-methylimidazo[1,2-a]pyridin-6-yl}-2-methyl-4-[(3R)-3-(phenylamino)pyrrolidin-1-yl] indazole-7-carboxamide] | > 10000 | > 10000 |  |  | 
12 | > 10000 | 1000 to 10000 | CCn1cc2c(N3C[C@@H](C)N[C@@H](C(C)C)C3)ccc(C(=O)Nc3cc(F)c4nc(C)cn4c3)c2n1 [Compound 600, 2-ethyl-N-{8-fluoro-2-methylimidazo[1,2-a]pyridin-6-yl}-4-[(3S,5R)-3-isopropyl-5-methylpiperazin-1-yl] indazole-7-carboxamide] | > 10000 | 1000 to 10000 |  |  | 
13 | > 10000 | 1000 to 10000 | Cc1cn2cc(NC(=O)c3ccc(N4CC[C@H](NC5CC(O)C5)C4)c4cn(C)nc34)cc(F)c2n1 (stereo partly shown) [Compound 603] | > 10000 | > 10000 |  |  | 
14 | 100 to 1000 | 100 to 1000 | Cc1nc2c(C)cc(NC(=O)c3ccc(N4CCNCC4)c4cn(C)nc34)nc2o1 [Compound 511, N-{2,7-dimethyl-[1,3]oxazolo[5,4-b]pyridin-5-yl}-2-methyl-4-(piperazin-1-yl) indazole-7-carboxamide] | 100 to 1000 | 100 to 1000 |  |  | 
15 | > 10000 | 100 to 1000 | CCNC1CCN(c2ccc(C(=O)Nc3cc(F)c4nc(C)cn4c3)c3nn(CC)cc23)C1 (stereo in doubt) [Compound 399, (S)-2-ethyl-4-(3-(ethylamino)pyrrolidin-1-yl)-N-(8-fluoro-2-methylimidazo[1,2-a]pyridin-6-yl)-2H-indazole-7-carboxamide] | > 10000 | 100 to 1000 |  |  | 
16 | > 10000 | > 10000 | CO[C@H]1C[C@H](n2cc3c(N4CCNCC4)ccc(C(=O)Nc4cc(F)c5nc(C)cn5c4)c3n2)C1 [Compound 496, Cis-N-(8-fluoro-2-methylimidazo[1,2-a]pyridin-6-yl)-2-((1s,3s)-3-methoxycyclobutyl)-4-(piperazin-1-yl)-2H-indazole-7-carboxamide 2,2,2-trifluoroacetate] | > 10000 | > 10000 |  |  | 
17 | 1000 to 10000 | 100 to 1000 | CCn1cc2c(N3CCN[C@H](C4CC4)C3)ccc(C(=O)Nc3cc(F)c4nc(C)cn4c3)c2n1 [Compound 542, 4-[(3R)-3-cyclopropylpiperazin-1-yl]-2-ethyl-N-{8-fluoro-2-methylimidazo[1,2-a]pyridin-6-yl}indazole-7-carboxamide] | 1000 to 10000 | 100 to 1000 |  |  | 
18 | 100 to 1000 | < 100 | Cn1cc2c(N3CCNCC3)ccc(C(=O)Nc3cc(F)c4nc(CO)oc4c3)c2n1 [Compound 406, N-[4-fluoro-2-(hydroxymethyl)-1,3-benzoxazol-6-yl]-2-methyl-4-(piperazin-1-yl) indazole-7-carboxamide] | 100 to 1000 | < 100 |  |  | 
19 | 100 to 1000 | 100 to 1000 | Cc1cn2cc(NC(=O)c3ccc(N4CCN[C@@H](C5CC5)C4)c4cn(C)nc34)cc(F)c2n1 [Compound 606, 4-[(3S)-3-cyclopropylpiperazin-1-yl]-N-{8-fluoro-2-methylimidazo[1,2-a]pyridin-6-yl}-2-methylindazole-7-carboxamide] | 1000 to 10000 | 100 to 1000 |  |  | 
20 | < 100 | < 100 | C=Cn1cc2c(N3CCC(NC)CC3)ccc(C(=O)Nc3cc(F)c4nc(C)cn4c3)c2n1 [Compound 502, 2-ethenyl-N-{8-fluoro-2-methylimidazo[1,2-a]pyridin-6-yl}-4-[4-(methylamino)piperidin-1-yl]indazole-7-carboxamide] | 100 to 1000 | < 100 |  |  | 
21 | 100 to 1000 | < 100 | Cc1cn2cc(NC(=O)c3ccc(N4CCNCC4)c4cn(CC5COC5)nc34)cc(F)c2n1 [Compound 497, N-{8-fluoro-2-methylimidazo[1,2-a]pyridin-6-yl}-2-(oxetan-3-ylmethyl)-4-(piperazin-1-yl) indazole-7-carboxamide] | 100 to 1000 | < 100 |  |  | 
22 | 1000 to 10000 | < 100 | Cc1nc2c(C)nc(NC(=O)c3ccc(N4CCNCC4)c4cn(C)nc34)cc2o1 [Compound 405, N-{2,4-dimethyl-[1,3]oxazolo[4,5-c]pyridin-6-yl}-2-methyl-4-(piperazin-1-yl) indazole-7-carboxamide] | 1000 to 10000 | 100 to 1000 |  |  | 
23 | > 10000 | 100 to 1000 | Cc1cn2cc(NC(=O)c3ccc(N4CC[C@@H](NCc5ncccn5)C4)c4cn(C)nc34)cc(F)c2n1 [Compound 594, N-{8-fluoro-2-methylimidazo[1,2-a]pyridin-6-yl}-2-methyl-4-[(3R)-3-[(pyrimidin-2-ylmethyl)amino]pyrrolidin-1-yl]indazole-7-carboxamide] | > 10000 | 1000 to 10000 |  |  | 

Row | Compound | IC50 ([1]; 24 h) [nM] | IC50 ([2]; 24 h) [nM] | AC50 [1] [nM] | AC50 ([2]; 24 h) [nM] | IC50 [1] [nM] | AC50 [2] [nM] | IC50 [2] [nM]
24 | CCn1cc2c(N(C)C3C[C@H]4CC[C@@H](C3)N4)ccc(C(=O)Nc3cc(F)c4nc(C)cn4c3)c2n1 (stereo partly drawn) [Compound 550, 4-[(1R,5S)-8-azabicyclo[3.2.1]octan-3-yl(methyl)amino]-2-ethyl-N-{8-fluoro-2-methylimidazo[1,2-a]pyridin-6-yl}indazole-7-carboxamide] | > 10000 | 1000 to 10000 | > 10000 | 1000 to 10000 |  |  | 
25 | CCN(c1ccc(C(=O)Nc2cc(F)c3nc(C)cn3c2)c2nn(C)cc12)C1CCNCC1 [Compound 527, 4-[ethyl(piperidin-4-yl)amino]-N-{8-fluoro-2-methylimidazo[1,2-a]pyridin-6-yl}-2-methylindazole-7-carboxamide] | > 10000 | 100 to 1000 | > 10000 | 100 to 1000 |  |  | 
